According to patent US20260355163A1, “TREATMENT OF FASCIOLOSIS” (INTERVET INC., priority 2022, published 2026):
“Also recorded” adds a separate entry of the source. Where two headings read alike, the source gives them in different places.

Columns and labels:
[1] = system: Fasciola hepatica Newly Excysted Juveniles (NEJs); test: whole organism screen of Fasciola hepatica NEJs: microscopic scoring of phenotype and motility (viability)
Method: The effect of test compounds in a whole organism screen of Fasciola hepatica Newly Excysted Juveniles (NEJs) was investigated along with DMSO (− control), triclabendazole (10 μM, + control) and media) and their anti-flukicidal activity was assessed at both 24 and 72 hours.
(§1) The viability detection of Fasciola hepatica NEJs is based on qualitative microscopic evaluation of motility and phenotype and additionally measuring propidium iodide to make use of the differential uptake of fluorophores (such as propidium iodide) by living organisms.
(§2) NEJs were prepared according to Edwards et al.. Approximately 12 NEJs/compound were cultivated. NEJ/compound co-cultures were placed at 37 °C in a humidified atmosphere containing 5% CO2. NEJ/compound co-cultures were incubated for a total of 72 hrs. At 24h, an assessment of the gross phenotype was made for all NEJ/compound co-cultures and bright field images were captured. At 72 h both phenotype and motility were quantified in comparison to live DMSO controls based on a microscopic scoring method detailed in [1] as well as summarised in Table 1 below.

[2] = system: Fasciola hepatica Newly Excysted Juveniles (NEJs); test: Propidium Iodide (PI) uptake by Fasciola hepatica NEJs in co-culture with compound
Method: as §1, §2
Propidium Iodide (PI) was then added to the NEJ/compound co-cultures (to a final concentration of […]) and these co-cultures were imaged under both Bright field and Texas Red settings.

[3] = system: common liver fluke (Fasciola hepatica); settings: cited from earlier work; for effectiveness against liver fluke stages: mature flukes and immature stages (early immature 1 to 6 weeks old, immature 6 to 9 weeks old)
[4] = 72 h, in comparison to live DMSO controls, triclabendazole + control at 10 μM, concentration of test compounds not given
[5] = overall conclusion from viability, phenotype/motility and PI

SMILES | Score (mean) motility 1 to 5 (highest) [1, 4] | Score (mean) phenotype 1 to 6 (highest) [1, 4] | active against Fasciola hepatica NEJs during the viability assessment ([1]; after 24 hours) | phenotype change and impaired motility significantly different to DMSO ([1]; after 72 hours) | significant activity against juvenile stages of Fasciola hepatica [1, 5] | effectiveness against liver fluke stages [3] | other results
Cc1cc(C2=NO[C@@](c3cc(Cl)c(Cl)c(Cl)c3)(C(F)(F)F)C2)sc1C(=O)NCC(=O)NCC(F)(F)F (stereo in doubt) [Compound 4, 3-methyl-N-(2-oxo-2-((2,2,2-trifluoroethyl)amino)ethyl)-5-[5-(3,4,5-trichlorophenyl)-5-(trifluoromethyl)-4,5-dihydroisoxazol-3-yl]thiophene-2-carboxamide] |  |  |  |  |  |  | Score (mean) motility 1 to 5 (highest) [1]: 5.0; Score (mean) phenotype 1 to 6 (highest) [1]: 5.7; active against Fasciola hepatica NEJs during the viability assessment [1]: active; phenotype change and impaired motility significantly different to DMSO [1]: both a phenotype change and impaired motility significantly different to DMSO; significant activity against juvenile stages of Fasciola hepatica [1]: significant activity; Propidium Iodide positivity [2]: > 90%
CS(=O)(=O)CC(=O)N1CC2(C1)OCc1cc(C3=NO[C@@](c4cc(Cl)c(F)c(Cl)c4)(C(F)(F)F)C3)ccc12 (stereo in doubt) [Compound 5, 1-(5′-(5-(3,5-dichloro-4-fluorophenyl)-5-(trifluoromethyl)-4,5-dihydroisoxazol-3-yl)-3′H-spiro[azetidine-3,1′-isobenzofuran]-1-yl)-2-(methylsulfonyl)ethan-1-one] | 5.0 | 5.7 | active | both a phenotype change and impaired motility significantly different to DMSO | significant activity |  | 
Cc1cc(C2=NOC(c3cc(Cl)cc(Cl)c3)(C(F)(F)F)C2)ccc1C(=O)NCC(=O)NCC(F)(F)F (centres unmarked) [Compound 1, 4-[5-(3,5-dichlorophenyl)-5-trifluoromethyl-4,5-dihydroisoxazol-3-yl]-2-methyl-N-[(2,2,2-trifluoro-ethylcarbamoyl)-methyl]-benzamide] |  |  |  |  |  |  | Score (mean) motility 1 to 5 (highest) [1]: 5.0; Score (mean) phenotype 1 to 6 (highest) [1]: 5.5; active against Fasciola hepatica NEJs during the viability assessment [1]: active; phenotype change and impaired motility significantly different to DMSO [1]: both a phenotype change and impaired motility significantly different to DMSO; significant activity against juvenile stages of Fasciola hepatica [1]: significant activity
Cc1cc(C2=NO[C@@](c3cc(Cl)cc(Cl)c3)(C(F)(F)F)C2)ccc1C(=O)NCC(=O)NCC(F)(F)F [Compound 2] |  |  |  |  |  |  | Score (mean) motility 1 to 5 (highest) [1]: 5.0; Score (mean) phenotype 1 to 6 (highest) [1]: 5.8; active against Fasciola hepatica NEJs during the viability assessment [1]: active; phenotype change and impaired motility significantly different to DMSO [1]: both a phenotype change and impaired motility significantly different to DMSO; significant activity against juvenile stages of Fasciola hepatica [1]: significant activity; Propidium Iodide positivity [2]: > 90%
O=C(CNC(=O)c1ccc(C2=NOC(c3cc(Cl)cc(C(F)(F)F)c3)(C(F)(F)F)C2)c2ccccc12)NCC(F)(F)F (centres unmarked) [Compound 3, 4-[5-[3-chloro-5-(trifluoromethyl)phenyl]-4,5-dihydro-5-(trifluoromethyl)-3-isoxazolyl]-N-[2-oxo-2-[(2,2,2-trifluoroethyl)amino]ethyl]-1-naphthalene-carboxamide] | 5.0 | 5.7 | active | both a phenotype change and impaired motility significantly different to DMSO | significant activity |  | 
C#CCNC(=O)CNC(=O)c1sc(C2=NO[C@@](c3cc(Cl)c(Cl)c(Cl)c3)(C(F)(F)F)C2)cc1C [Compound 6] | 5.0 | 5.6 | active | both a phenotype change and impaired motility significantly different to DMSO | significant activity |  | 
C#CCNC(=O)CNC(=O)c1sc(C2=NO[C@@](c3cc(Cl)c(Cl)c(Cl)c3)(C(F)(F)F)C2)c2c1CCCC2 [Compound 7] | 4.8 | 5.7 | active | both a phenotype change and impaired motility significantly different to DMSO | significant activity |  | 
C#CCNC(=O)CNC(=O)c1sc(C2=NO[C@](c3cc(Cl)c(Cl)c(Cl)c3)(C(F)(F)F)C2)c2c1CCCC2 [Compound 8] | 5.0 | 5.7 | active | both a phenotype change and impaired motility significantly different to DMSO | significant activity |  | 
Cc1cc(C2=NSC(c3cc(Cl)cc(Cl)c3)(C(F)(F)F)C2)ccc1C(=O)NCC(=O)NCC(F)(F)F (centres unmarked) [Compound 9] | 5.0 | 5.7 | active | both a phenotype change and impaired motility significantly different to DMSO | significant activity |  | 
Cn1nc(C(F)(F)C(F)(F)F)c(C(F)(F)F)c1-n1cc(-c2ccc(Cl)c(C(=O)NC3(C#N)CC3)c2)cn1 [Compound 10, 2-chloro-N-(1-cyanocyclopropyl)-5-[1-[2-methyl-5-(1,1,2,2,2-pentafluoroethyl)-4-(trifluoromethyl)pyrazol-3-yl]pyrazol-4-yl]benzamide] | 4.8 | 3.8 | active | both a phenotype change and impaired motility significantly different to DMSO |  |  | 
CSc1nc2cc(Cl)c(Oc3cccc(Cl)c3Cl)cc2[nH]1 [Triclabendazole] | 5.0 | 5.8 |  |  |  | effective against mature stages of the common liver fluke (Fasciola hepatica) as well as all immature stages | effectiveness against early immature liver fluke larvae ([3]; early immature larvae (1 to 6 weeks old)): effective against all early immature liver fluke larvae
CCCSc1ccc2nc(NC(=O)OC)[nH]c2c1 [albendazole] |  |  |  |  |  | only effective against the mature flukes and not against the immature stages; also recorded: effective only against mature flukes | 
Nc1cc(C(Cl)=C(Cl)Cl)c(S(N)(=O)=O)cc1S(N)(=O)=O [clorsulon] |  |  |  |  |  | effective only against mature flukes | 
Cc1cc(C(C#N)c2ccc(Cl)cc2)c(Cl)cc1NC(=O)c1cc(I)cc(I)c1O (centres unmarked) [closantel] |  |  |  |  |  | only effective against the mature flukes and not against the immature stages | effectiveness against 3-8 weeks old flukes ([3]; 3-8 weeks old flukes): partially effective; effectiveness against mature flukes ([3]; mature flukes): fully effective
N#Cc1cc(I)c(O)c([N+](=O)[O-])c1 [nitroxynil] |  |  |  |  |  | only effective against the mature flukes and not against the immature stages; also recorded: effective against fluke from 8 weeks post infection | 
O=C(Nc1cc(Cl)cc(Cl)c1O)c1c(O)c(Cl)cc(Cl)c1Cl [oxyclozanide] |  |  |  |  |  | only effective against the mature flukes and not against the immature stages; also recorded: effective only against mature flukes | 
